Source: the CheMixHub viscosity set
Several values for one entry are separate records, joined by “and”; a condition that tells them apart may be missing. Identical values can stand only once.

Test: xn = mol fraction of the nth substance listed

CCCC[P+](CCCC)(CCCC)CCCC.CS(=O)(=O)[O-] + c1c[nH]cn1
101.33 kPa, x1 = 0.5
Conditions | viscosity [mPa·s]
313.05 K | 99.81
323.05 K | 61.32

Cc1ccc(S(=O)(=O)O)cc1 + c1c[nH]cn1
viscosity, 101.33 kPa
Conditions | 303.11 K | 303.14 K | 313.12 K | 313.14 K | 323.13 K | 323.14 K
x2 = 0.78 | 43.59 mPa·s | – | 27.71 mPa·s | – | 18.65 mPa·s | –
x2 = 0.8 | 54.18 mPa·s | 41.78 mPa·s | 34.32 mPa·s | 26.53 mPa·s | – | 20.96 mPa·s and 17.62 mPa·s

C1CCOC1 + c1ccccc1
303.15 K, 101.33 kPa
Conditions | viscosity [mPa·s]
x1 = 0.0997 | 0.547
x1 = 0.1996 | 0.536
x1 = 0.3017 | 0.524
x1 = 0.3993 | 0.514
x1 = 0.5018 | 0.504
x1 = 0.6038 | 0.495
x1 = 0.7011 | 0.484
x1 = 0.8026 | 0.471
x1 = 0.8977 | 0.457

CC1COC(=O)O1 (stereo not given) + c1ccccc1
viscosity [mPa·s]
Conditions | 298.15 K | 303.15 K | 308.15 K
101 kPa, x1 = 0.0191 | 0.6193 | – | 0.5377
101 kPa, x1 = 0.0416 | 0.6341 | – | 0.5545
101 kPa, x1 = 0.0585 | 0.6458 | – | 0.5677
101 kPa, x1 = 0.0771 | 0.6595 | – | 0.5824
101 kPa, x1 = 0.103 | 0.6758 | – | 0.6037
101 kPa, x1 = 0.1982 | 0.7426 | – | 0.6908
101 kPa, x1 = 0.2949 | 0.8478 | – | 0.7937
101 kPa, x1 = 0.3972 | 0.9876 | – | 0.9193
101 kPa, x1 = 0.4938 | 1.145 | – | 1.055
101 kPa, x1 = 0.5987 | 1.346 | – | 1.221
101 kPa, x1 = 0.7002 | 1.571 | – | 1.402
101 kPa, x1 = 0.7907 | 1.799 | – | 1.582
101 kPa, x1 = 0.9024 | 2.119 | – | 1.826
101.3 kPa, x1 = 0.1049 | – | 0.616 | –
101.3 kPa, x1 = 0.2087 | – | 0.7019 | –
101.3 kPa, x1 = 0.3114 | – | 0.798 | –
101.3 kPa, x1 = 0.4131 | – | 0.9074 | –
101.3 kPa, x1 = 0.5136 | – | 1.035 | –
101.3 kPa, x1 = 0.6131 | – | 1.194 | –
101.3 kPa, x1 = 0.7109 | – | 1.379 | –
101.3 kPa, x1 = 0.8083 | – | 1.599 | –
101.3 kPa, x1 = 0.9046 | – | 1.853 | –

COc1ccccc1 + c1ccccc1
101.33 kPa
Conditions | viscosity
293.15 K, x1 = 0.0945 | 0.7297 mPa·s
293.15 K, x1 = 0.1951 | 0.7551 mPa·s
293.15 K, x1 = 0.2984 | 0.8001 mPa·s
293.15 K, x1 = 0.3942 | 0.8413 mPa·s
293.15 K, x1 = 0.5178 | 0.9017 mPa·s
293.15 K, x1 = 0.6157 | 0.9434 mPa·s
293.15 K, x1 = 0.6574 | 0.9641 mPa·s
293.15 K, x1 = 0.8116 | 1.052 mPa·s
293.15 K, x1 = 0.906 | 1.097 mPa·s
298.15 K, x1 = 0.0945 | 0.6765 mPa·s
298.15 K, x1 = 0.1 | 0.635 mPa·s
298.15 K, x1 = 0.1025 | 0.6396 mPa·s
298.15 K, x1 = 0.1951 | 0.7095 mPa·s
298.15 K, x1 = 0.2 | 0.671 mPa·s and 0.671 mPa·s
298.15 K, x1 = 0.2004 | 0.6806 mPa·s
298.15 K, x1 = 0.2984 | 0.7437 mPa·s
298.15 K, x1 = 0.3003 | 0.7121 mPa·s
298.15 K, x1 = 0.3942 | 0.7772 mPa·s
298.15 K, x1 = 0.4 | 0.742 mPa·s
298.15 K, x1 = 0.402 | 0.7553 mPa·s
298.15 K, x1 = 0.4985 | 0.7849 mPa·s
298.15 K, x1 = 0.5 | 0.782 mPa·s and 0.782 mPa·s
298.15 K, x1 = 0.5178 | 0.8397 mPa·s
298.15 K, x1 = 0.6 | 0.821 mPa·s
298.15 K, x1 = 0.6157 | 0.88 mPa·s
298.15 K, x1 = 0.6574 | 0.9047 mPa·s
298.15 K, x1 = 0.699 | 0.8709 mPa·s
298.15 K, x1 = 0.8 | 0.907 mPa·s
298.15 K, x1 = 0.805 | 0.9112 mPa·s
298.15 K, x1 = 0.8116 | 0.9812 mPa·s
298.15 K, x1 = 0.9013 | 0.9506 mPa·s
303.15 K, x1 = 0.1025 | 0.6033 mPa·s
303.15 K, x1 = 0.2004 | 0.6433 mPa·s
303.15 K, x1 = 0.3003 | 0.6712 mPa·s
303.15 K, x1 = 0.402 | 0.7045 mPa·s
303.15 K, x1 = 0.4985 | 0.738 mPa·s
303.15 K, x1 = 0.5991 | 0.7765 mPa·s
303.15 K, x1 = 0.699 | 0.8121 mPa·s
303.15 K, x1 = 0.805 | 0.8545 mPa·s
303.15 K, x1 = 0.9013 | 0.8883 mPa·s
308.15 K, x1 = 0.1 | 0.556 mPa·s
308.15 K, x1 = 0.1025 | 0.5736 mPa·s
308.15 K, x1 = 0.2 | 0.587 mPa·s
308.15 K, x1 = 0.2004 | 0.6196 mPa·s
308.15 K, x1 = 0.3003 | 0.6447 mPa·s
308.15 K, x1 = 0.4 | 0.649 mPa·s
308.15 K, x1 = 0.402 | 0.675 mPa·s
308.15 K, x1 = 0.4985 | 0.7086 mPa·s
308.15 K, x1 = 0.5 | 0.68 mPa·s
308.15 K, x1 = 0.5991 | 0.7422 mPa·s
308.15 K, x1 = 0.6 | 0.715 mPa·s
308.15 K, x1 = 0.699 | 0.7763 mPa·s
308.15 K, x1 = 0.8 | 0.785 mPa·s
308.15 K, x1 = 0.805 | 0.8167 mPa·s
308.15 K, x1 = 0.9013 | 0.8509 mPa·s
313.15 K, x1 = 0.1025 | 0.5191 mPa·s
313.15 K, x1 = 0.2004 | 0.5555 mPa·s
313.15 K, x1 = 0.3003 | 0.5884 mPa·s
313.15 K, x1 = 0.402 | 0.6099 mPa·s
313.15 K, x1 = 0.4985 | 0.6337 mPa·s
313.15 K, x1 = 0.5991 | 0.669 mPa·s
313.15 K, x1 = 0.699 | 0.7007 mPa·s
313.15 K, x1 = 0.805 | 0.7318 mPa·s
313.15 K, x1 = 0.9013 | 0.7626 mPa·s
318.15 K, x1 = 0.1 | 0.489 mPa·s
318.15 K, x1 = 0.2 | 0.517 mPa·s
318.15 K, x1 = 0.4 | 0.57 mPa·s
318.15 K, x1 = 0.5 | 0.597 mPa·s
318.15 K, x1 = 0.6 | 0.626 mPa·s
318.15 K, x1 = 0.8 | 0.684 mPa·s
323.15 K, x1 = 0.1 | 0.46 mPa·s
323.15 K, x1 = 0.2 | 0.485 mPa·s and 0.485 mPa·s
323.15 K, x1 = 0.4 | 0.533 mPa·s
323.15 K, x1 = 0.5 | 0.559 mPa·s and 0.559 mPa·s
323.15 K, x1 = 0.6 | 0.585 mPa·s
323.15 K, x1 = 0.8 | 0.64 mPa·s
